According to patent US20260070945A1, “MACROCYCLIC IMMUNOMODULATORS” (Bristol-Myers Squibb Company, priority 2022, published 2026):
*1 amine or outer side, *2 acyl side, *3 side chain or, on linkers, in order; H or OH if unused. Where a SMILES comes first, the peptide text is derived from it. Bridges are numbered along the chain shown (N, C = ends). [ ]: non-standard residue; d: D form. The star is where a group is joined. ξ: configuration not given here. Phe(3-CF3) = N[C@@H](Cc1cccc(C(F)(F)F)c1)C(=O)O; Phe(4-CF3) = N[C@@H](Cc1ccc(C(F)(F)F)cc1)C(=O)O; Phe(4-COOH) = N[C@@H](Cc1ccc(C(=O)O)cc1)C(=O)O; Bip = N[C@@H](Cc1ccc(-c2ccccc2)cc1)C(=O)O; Phe(3-Me) = Cc1cccc(C[C@H](N)C(=O)O)c1; γGlu = O=C(O)[C@H](CCC(=O)[*:2])N[*:1]; NH(CH2)12COOH = O=C(O)CCCCCCCCCCCCN*; Val(3-OH) = CC(C)(O)[C@H](N)C(=O)O; aIle = CC[C@@H](C)[C@H](N)C(=O)O; 4Pal = N[C@@H](Cc1ccncc1)C(=O)O; 2Thi = N[C@@H](Cc1cccs1)C(=O)O; Cha = N[C@@H](CC1CCCCC1)C(=O)O; Cit = NC(=O)NCCC[C@H](N)C(=O)O; NMeN = CN[C@@H](CC(N)=O)C(=O)O; Thr(3ξ) = CC(O)[C@H](N)C(=O)O; hSer = N[C@@H](CCO)C(=O)O; Carboxymethyl = O=C(O)C*; NMeA = CN[C@@H](C)C(=O)O; Orn = NCCC[C@H](N)C(=O)O; dDap = NC[C@@H](N)C(=O)O; Aun = NCCCCCCCCCCC(=O)O; Dab = NCC[C@H](N)C(=O)O; AEEA = NCCOCCOCC(=O)O

These compounds were tested against T1, PD-1/PD-L1 interaction (PE-labeled human PD-L1-Ig binding to Jurkat cell line over-expressing human PD-1) (Homo sapiens, UniProt Q15116) (assay: Jurkat-PD-1 Cell Binding High-Content Screening Assay (CBA)). Conditions: Jurkat-hPD-1 cells, PE-labeled PD-L1-Ig 20 nM final; read-out: Jurkat HPD1 PDL1 IC50.
T1 construct: expressed in transfected cells; host or cells: Jurkat
T1 sequence (Q15116 25-288): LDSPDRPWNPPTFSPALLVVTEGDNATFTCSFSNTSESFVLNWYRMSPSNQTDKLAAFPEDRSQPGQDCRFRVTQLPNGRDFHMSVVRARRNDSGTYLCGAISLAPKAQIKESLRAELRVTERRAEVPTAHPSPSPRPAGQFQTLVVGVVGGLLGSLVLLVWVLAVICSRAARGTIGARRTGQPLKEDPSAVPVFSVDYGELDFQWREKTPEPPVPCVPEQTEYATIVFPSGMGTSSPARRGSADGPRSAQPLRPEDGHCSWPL
Outline: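 Jurkat-hPD-1 cells (8×10^3/well) in DMEM with 10% fetal calf serum were preincubated with compound for 2 h at 37 °C. PE-labeled PD-L1-Ig was then added at 20 nM final for 1 h. Cells were fixed in paraformaldehyde with Hoechst 33342, washed and imaged by high-content imaging.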
Work on `CC(C)C[C@@H]1NC(=O)[C@H](Cc2c[nH]c3ccccc23)NC(=O)[C@H](CC(=O)O)NC(=O)[C@H](Cc2ccc(OCC(=O)O)cc2)NC(=O)[C@H](C(C)O)NC(=O)CSC[C@@H](C(=O)NCCOCCOCC(=O)NCCCCCCCCCCC(=O)O)NC(=O)[C@H](CCC(=O)O)NC(=O)[C@H](C(C)C)NC(=O)[C@H](CC2CCCCC2)NC(=O)[C@H](CCN)NC(=O)[C@@H](CC(C)C)NC(=O)[C@H](C)N(C)C(=O)[C@H](C(C)C)NC(=O)[C@H](Cc2ccc(-c3ccccc3)cc2)NC1=O` (stereo partly drawn) [Example 2291] ({CH2CO}-[Thr(3ξ)]Y(Carboxymethyl)DWL[Bip]V[NMeA][dL][Dab][Cha]VEC[AEEA][Aun]-OH; thioether N-14) yielded an IC50 of 28.9 nM.
For `CC[C@@H](C)[C@@H]1NC(=O)[C@H](Cc2ccc(-c3ccccc3)cc2)NC(=O)[C@H](C(C)C)NC(=O)[C@H](Cc2c[nH]c3ccccc23)NC(=O)[C@H](CC(=O)O)NC(=O)[C@H](Cc2ccc(C(=O)O)cc2)NC(=O)[C@H](Cc2ccc(OCC(=O)O)cc2)NC(=O)CSC[C@@H](C(=O)N[C@@H](CC(N)=O)C(=O)NCCOCCOCC(=O)N[C@@H](CCC(=O)NCCOCCOCC(=O)N[C@@H](CCC(=O)NCCOCCOCC(=O)N[C@@H](CCCN)C(=O)NCCCCCCCCCCC(=O)O)C(=O)O)C(=O)O)NC(=O)[C@H](CO)NC(=O)[C@H](C(C)C)NC(=O)[C@H](CC2CCCCC2)NC(=O)[C@H](CC(N)=O)NC(=O)[C@@H](CC(C)C)NC(=O)[C@H](C)N(C)C1=O` [Example 2021] ({CH2CO}-Y(Carboxymethyl)[Phe(4-COOH)]DWV[Bip][aIle][NMeA][dL]N[Cha]VSCN[AEEA][γGlu][AEEA][γGlu][AEEA][Orn][Aun]-OH; thioether N-14), the IC50 was 48.9 nM.
`Cc1cccc(C[C@@H]2NC(=O)[C@H](CC(=O)O)NC(=O)[C@H](Cc3ccc(OCC(=O)O)cc3)NC(=O)[C@H](C(C)O)NC(=O)CSC[C@@H](C(=O)N[C@@H](CCN)C(=O)NCCCCCCCCCCC(=O)O)NC(=O)[C@H](C(C)O)NC(=O)[C@H](C(C)C)NC(=O)[C@H](CC3CCCCC3)NC(=O)[C@H](CCN)NC(=O)[C@@H](CC(C)C)NC(=O)[C@H](C)N(C)C(=O)[C@H](CCC(=O)O)NC(=O)[C@H](Cc3ccc(-c4ccccc4)cc3)NC(=O)[C@H](CCC(=O)O)NC2=O)c1` (stereo partly drawn) [Example 2303] ({CH2CO}-[Thr(3ξ)]Y(Carboxymethyl)D[Phe(3-Me)]E[Bip]E[NMeA][dL][Dab][Cha]V[Thr(3ξ)]C[Dab][Aun]-OH; thioether N-14) showed an IC50 of 46 nM.
Compound `CC(C)C[C@H]1NC(=O)[C@H](CC(N)=O)N(C)C(=O)[C@H](C(C)C)NC(=O)[C@H](Cc2ccc(-c3ccccc3)cc2)NC(=O)[C@H](C(C)C)NC(=O)[C@H](Cc2c[nH]c3ccccc23)NC(=O)[C@H](CC(=O)O)NC(=O)[C@H](Cc2ccc(OCC(=O)O)cc2)NC(=O)[C@H](C(C)O)NC(=O)CSC[C@@H](C(=O)N[C@@H](CCN)C(=O)NCCCCCCCCCCC(=O)O)NC(=O)[C@H](C(C)O)NC(=O)[C@H](C(C)C)NC(=O)[C@H](CC2CCCCC2)NC(=O)[C@H](CCN)NC1=O` (stereo partly drawn) [Example 2243] ({CH2CO}-[Thr(3ξ)]Y(Carboxymethyl)DWV[Bip]V[NMeN][dL][Dab][Cha]V[Thr(3ξ)]C[Dab][Aun]-OH; thioether N-14) has an IC50 of 26 nM.
`Cc1cccc(C[C@@H]2NC(=O)[C@H](CC(=O)O)NC(=O)[C@H](Cc3ccc(OCC(=O)O)cc3)NC(=O)[C@H](Cc3cccs3)NC(=O)CSC[C@@H](C(=O)N[C@@H](CCN)C(=O)NCCCCCCCCCCC(=O)O)NC(=O)[C@H](CO)NC(=O)[C@H](C(C)(C)O)NC(=O)[C@H](CC3CCCCC3)NC(=O)[C@H](CCN)NC(=O)[C@@H](CC(C)C)NC(=O)[C@H](C)N(C)C(=O)[C@H](Cc3ccc(OCC(=O)O)cc3)NC(=O)[C@H](Cc3ccc(-c4ccccc4)cc3)NC(=O)[C@H](Cc3ccc(OCC(=O)O)cc3)NC2=O)c1` [Example 1285] ({CH2CO}-[2Thi]Y(Carboxymethyl)D[Phe(3-Me)]Y(Carboxymethyl)[Bip]Y(Carboxymethyl)[NMeA][dL][Dab][Cha][Val(3-OH)]SC[Dab][Aun]-OH; thioether N-14) showed an IC50 of 29.2 nM.
In the case of `CC(C)C[C@H]1NC(=O)[C@H](C)N(C)C(=O)[C@H](CCCNC(N)=O)NC(=O)[C@H](Cc2ccc(-c3ccccc3)cc2)NC(=O)[C@H](C(C)C)NC(=O)[C@H](Cc2c[nH]c3ccccc23)NC(=O)[C@H](CC(=O)O)NC(=O)[C@H](Cc2ccc(OCC(=O)O)cc2)NC(=O)[C@H](Cc2ccc(OCC(=O)O)cc2)NC(=O)CSC[C@@H](C(=O)NCCOCCOCC(=O)NCCCCCCCCCCC(=O)O)NC(=O)[C@H](CCO)NC(=O)[C@H](C(C)C)NC(=O)[C@H](CC2CCCCC2)NC(=O)[C@H](CCN)NC1=O` [Example 2319] ({CH2CO}-Y(Carboxymethyl)Y(Carboxymethyl)DWV[Bip][Cit][NMeA][dL][Dab][Cha]V[hSer]C[AEEA][Aun]-OH; thioether N-14), the IC50 is reported as 15.6 nM.
`CC(=O)NCCCC[C@@H]1NC(=O)[C@H](C(C)C)NC(=O)[C@H](CC2CCCCC2)NC(=O)[C@H](CCN)NC(=O)[C@@H](CC(C)C)NC(=O)[C@H](C)N(C)C(=O)[C@H](CCO)NC(=O)[C@H](Cc2ccc(-c3ccccc3)cc2)NC(=O)[C@H](C(C)C)NC(=O)[C@H](Cc2cccc(C)c2)NC(=O)[C@H](CC(=O)O)NC(=O)[C@H](Cc2ccc(OCC(=O)O)cc2)NC(=O)[C@H](Cc2ccc(OCC(=O)O)cc2)NC(=O)CSC[C@@H](C(=O)N[C@@H](CCN)C(=O)NCCCCCCCCCCC(=O)O)NC1=O` [Example 2221] ({CH2CO}-Y(Carboxymethyl)Y(Carboxymethyl)D[Phe(3-Me)]V[Bip][hSer][NMeA][dL][Dab][Cha]VK(Ac)C[Dab][Aun]-OH; thioether N-14) gave an IC50 of 11.6 nM.
With `CC[C@@H](C)[C@@H]1NC(=O)[C@H](Cc2ccc(-c3ccccc3)cc2)NC(=O)[C@H](C(C)C)NC(=O)[C@H](Cc2c[nH]c3ccccc23)NC(=O)[C@H](CC(=O)O)NC(=O)[C@H](Cc2ccc(OCC(=O)O)cc2)NC(=O)[C@H](Cc2ccncc2)NC(=O)CSC[C@@H](C(=O)N[C@H](CN)C(=O)NCCOCCOCC(=O)N[C@@H](CCC(=O)NCCOCCOCC(=O)N[C@@H](CCC(=O)NCCOCCOCC(=O)N[C@@H](CCCN)C(=O)NCCCCCCCCCCC(=O)O)C(=O)O)C(=O)O)NC(=O)[C@H](Cc2c[nH]cn2)NC(=O)[C@H](C(C)C)NC(=O)[C@H](CC2CCCCC2)NC(=O)[C@H](CC(N)=O)NC(=O)[C@@H](CC(C)C)NC(=O)[C@H](C)N(C)C1=O` [Example 2013] ({CH2CO}-[4Pal]Y(Carboxymethyl)DWV[Bip][aIle][NMeA][dL]N[Cha]VHC[dDap][AEEA][γGlu][AEEA][γGlu][AEEA][Orn][Aun]-OH; thioether N-14) the IC50 was 74.1 nM.
Work on `Cc1cccc(C[C@@H]2NC(=O)[C@H](CC(=O)O)NC(=O)[C@H](Cc3ccc(OCC(=O)O)cc3)NC(=O)[C@H](C(C)O)NC(=O)CSC[C@@H](C(=O)N[C@@H](CCN)C(=O)NCCOCCOCC(=O)NCCCCCCCCCCC(=O)O)NC(=O)[C@H](CCC(=O)O)NC(=O)[C@H](C(C)C)NC(=O)[C@H](CC3CCCCC3)NC(=O)[C@H](CCN)NC(=O)[C@@H](CC(C)C)NC(=O)[C@H](C)N(C)C(=O)[C@H](Cc3ccc(OCC(=O)O)cc3)NC(=O)[C@H](Cc3ccc(-c4ccccc4)cc3)NC(=O)[C@H](Cc3ccc(C(=O)O)cc3)NC2=O)c1` (stereo partly drawn) [Example 2481] ({CH2CO}-[Thr(3ξ)]Y(Carboxymethyl)D[Phe(3-Me)][Phe(4-COOH)][Bip]Y(Carboxymethyl)[NMeA][dL][Dab][Cha]VEC[Dab][AEEA][Aun]-OH; thioether N-14) yielded an IC50 of 14.6 nM.

Same assay, conditions: PE-labeled PD-L1-Ig 20 nM final, Jurkat-hPD-1 cells; read-out: Jurkat HPD1 PDL1 IC50
`Cc1cccc(C[C@@H]2NC(=O)[C@H](CC(=O)O)NC(=O)[C@H](Cc3ccc(OCC(=O)O)cc3)NC(=O)[C@H](Cc3ccncc3)NC(=O)CSC[C@@H](C(=O)N[C@@H](CO)C(=O)NCCOCCOCC(=O)NCCCCCCCCCCC(=O)O)NC(=O)[C@H](CCC(=O)O)NC(=O)[C@H](C(C)(C)O)NC(=O)[C@H](CC3CCCCC3)NC(=O)[C@H](CCN)NC(=O)[C@@H](CC(C)C)NC(=O)[C@H](C)N(C)C(=O)[C@H](Cc3ccc(C(=O)O)cc3)NC(=O)[C@H](Cc3ccc(-c4ccccc4)cc3)NC(=O)[C@H](Cc3ccc(C(=O)O)cc3)NC2=O)c1` [Example 2496] ({CH2CO}-[4Pal]Y(Carboxymethyl)D[Phe(3-Me)][Phe(4-COOH)][Bip][Phe(4-COOH)][NMeA][dL][Dab][Cha][Val(3-OH)]ECS[AEEA][Aun]-OH; thioether N-14) was tested, and the IC50 was 67.1 nM.
`CC(=O)NCCCC[C@@H]1NC(=O)[C@H](C(C)(C)O)NC(=O)[C@H](CC2CCCCC2)NC(=O)[C@H](CCN)NC(=O)[C@@H](CC(C)C)NC(=O)[C@H](C)N(C)C(=O)[C@H](CCCNC(=N)N)NC(=O)[C@H](Cc2ccc(-c3ccccc3)cc2)NC(=O)[C@H](Cc2ccc(C(=O)O)cc2)NC(=O)[C@H](Cc2cccc(C(F)(F)F)c2)NC(=O)[C@H](CC(=O)O)NC(=O)[C@H](Cc2ccc(OCC(=O)O)cc2)NC(=O)[C@H](Cc2ccc(OCC(=O)O)cc2)NC(=O)CSC[C@@H](C(=O)N[C@@H](CCN)C(=O)NCCCCCCCCCCCCC(=O)O)NC1=O` [Example 2600] ({CH2CO}-Y(Carboxymethyl)Y(Carboxymethyl)D[Phe(3-CF3)][Phe(4-COOH)][Bip]R[NMeA][dL][Dab][Cha][Val(3-OH)]K(Ac)C[Dab]-{NH(CH2)12COOH}; thioether N-14) was tested, and the IC50 was 5.5 nM.
With `CC(=O)NCCCC[C@@H]1NC(=O)[C@H](C(C)(C)O)NC(=O)[C@H](CC2CCCCC2)NC(=O)[C@H](CCN)NC(=O)[C@@H](CC(C)C)NC(=O)[C@H](C)N(C)C(=O)[C@H](CCC(N)=O)NC(=O)[C@H](Cc2ccc(-c3ccccc3)cc2)NC(=O)[C@H](Cc2ccc(C(F)(F)F)cc2)NC(=O)[C@H](Cc2cccc(C)c2)NC(=O)[C@H](CC(=O)O)NC(=O)[C@H](Cc2ccc(OCC(=O)O)cc2)NC(=O)[C@H](Cc2ccc(OCC(=O)O)cc2)NC(=O)CSC[C@@H](C(=O)N[C@@H](CCN)C(=O)NCCOCCOCC(=O)NCCCCCCCCCCC(=O)O)NC1=O` [Example 2593] ({CH2CO}-Y(Carboxymethyl)Y(Carboxymethyl)D[Phe(3-Me)][Phe(4-CF3)][Bip]Q[NMeA][dL][Dab][Cha][Val(3-OH)]K(Ac)C[Dab][AEEA][Aun]-OH; thioether N-14) the IC50 was 9 nM.
